{"source": "patent US5804595A", "about": "“Kappa opioid receptor agonists” (Regents of the University of Minnesota, priority 1995, dated 1998)", "tested_on": "mouse vas deferens (MVD) preparations", "test": "Agonist potency in mouse vas deferens (MVD)", "type": "biochemical", "conditions": "arithmetic means of at least three experiments, read-out: IC50 (nM) ± SEM, MVD (Agonist Potencies of Parent Compounds)"}
{"smiles": "CN(C(=O)Cc1ccc(Cl)c(Cl)c1)C(CN1CCCC1)c1ccc([N+](=O)[O-])cc1", "note": "(racemic) [Compound 23, 2-(3,4-Dichlorophenyl)-N-methyl-N-[(1R,S)-1-(4-nitrophenyl)-2-(1-pyrrolidinyl)ethyl]acetamide]", "values": [{"measurement": "IC50", "value": "197 ± 61", "unit": "nM"}]}
